From US20080153792A1, “Drug Identification and Treatment Method” (priority 2006, published 2008) come the findings set out here.

One series concerns DIO mice. The series can be described thus: diet induced obesity (DIO) mouse, OGTT. Type of series: in vivo. The following applies: 20, 40 or 80 mg/kg twice a day oral gavage up to 28 days. From the text: Diet induced obesity (DIO) mouse hyperglycemia treatment. The effect of a drug to enhance peripheral sensitivity to insulin can be studied in a mouse model in which a state of insulin resistance is attained by feeding the animals a fat-enriched diet (60% of total caloric intake) for at least 6 weeks. This model has been described, e.g., J. N. Thupari et al., Proc. Natl. Acad. Sci. USA, 99(14):9498-9502, 2002, H. Xu et al., J. Clin. Invest., 112:1821-1830, 2003, H. Takahashi et al., J. Biol. Chem., 278(47):46654-46660, 2003.
For these studies, animals of approximately 4 weeks of age were divided into groups of 10 animals each and then treated with a vehicle control (no drug) or 17α-ethynylandrost-5-ene-3β,7β,17β-triol by oral gavage. The 17α-ethynylandrost-5-ene-3β,7β,17β-triol was administered at 20 mg/kg, 40 mg/kg or 80 mg/kg twice a day for up to 28 days. At day 14 and day 28 during the dosing period an OGTT was performed.

Series [1] concerns 8 week old db/db diabetic mice. The series can be described thus: hyperinsulinemic-euglycemic clamp in db/db mice. The series is classed as in vivo, mouse. The following applies: oral gavage 14 days; insulin 10 mU/kg/min. On the procedure: Glucose lowering in 8 week old db/db diabetic mice. The hyperinsulinemic-euglycemic clamp protocol was conducted to measure insulin sensitivity in vivo. In this procedure, insulin was administered to raise the insulin concentration while glucose was infused to maintain euglycemia or a fixed, normal blood glucose level (about 180 mg/dL). […] The objective of this protocol was to investigate characterize the capacity of 17α-ethynylandrost-5-ene-3β,7β,17β-triol and androst-5-ene-3β,7β,16α,17β-tetrol to ameliorate systemic insulin resistance and improve whole body glucose disposal in the hyperinsulinemic-euglycemic clamp model. The degree of skeletal muscle and hepatic insulin sensitivity and tissue specific glucose uptake were also assessed. The animals were dosed daily by oral gavage for 14 days. On Day 10 of treatment catheters were implanted in the carotid artery and jugular vein. On the day of the clamp (day 14) the compound was administered at 7:30 am.
Body weight and glucose concentration were assessed on day 0, 7 and day 14 of treatment. On day 14 a euglycemic hyperinsulinemic clamp was performed. […] Plasma ^14C 2-deoxyglucose was assessed at 122, 125, 130, 135, 145 min. […]
Analysis was conducted as follows. Plasma samples were deproteinized with Ba(OH)2 (0.3 N) and ZnSO4 (0.3 N), dried and radioactivity was assessed on scintillation counter (Packard TRICARB 2900 TR, Meriden, Conn.). […] One supernatant was directly counted to determine radioactivity from both [14C] […] A second aliquot was treated with Ba(OH)2 and ZnSO4 to remove ^14C DGP and any tracer incorporated into glycogen and then counted to determine radioactivity from free [^14C]DG(2). [^14C]DGP was calculated as the difference between the two aliquots. […] Rg, an index of tissue specific glucose uptake was calculated as previously described (E. W. Kraegen et al., Am. J. Physiol., 248:E353-E362, 1985). Whole body glucose turnover was calculated as the ratio of the ^3H glucose infusion rate (dpm/kg/min) and arterial plasma glucose specific activity (dpm/mg). […]

In another series the test system is 11β-HSD1. As to the kind of experiment: expression of 11β-HSD1 in osteoblasts of treated mice. Type of series: in vivo, mouse. Particulars: administration to mice.
Series [2] relates to DBA/1Lac/J mice, collagen induced arthritis. The series can be described thus: collagen induced arthritis (CIA), Foxp3+ cells and clinical score. The series is classed as in vivo, mouse. The protocol:
Increase of CD4^+CD25^+ T regulatory cells or their activity in vivo. The compound 17α-ethynylandrost-5-ene-3β,7β,17β-triol was administered to mice essentially as described in a previously described collagen induced arthritis animal model. H. Offner et al., Clin. Immunol., 110:181-190, 2006.
DBA/1Lac/J mice were used for the study. The mice were obtained from Jackson Laboratories (Bar Harbor, Harbor, […].) and housed in accordance with applicable institutional guidelines. Bovine type II collagen (bCll) was used to induce collagen induced arthritis (CIA) by immunizing 8-week-old mice with 200 μg of bCII emulsified 1:1 with CFA containing 200 μg Mycobacterium tuberculosis (100 μL; Difco, Detroit, Mich.). The antigen was injected intradermally at the base of the tail. The animals were monitored for 4-7 weeks to observe the onset and progression of the disease post-immunization. The arthritic severity was evaluated with a grading system for each paw according to the following scale: 0=no redness or swelling; 1=slight swelling in ankle or redness in foot; 2=progressed swelling and inflammation and redness from ankle to mid foot; 3=swelling and inflammation of entire foot; 4=swelling and inflammation of entire foot including toes.
After immunization, the mice were treated with the drug at 40 mg/kg/day in vehicle by oral gavage beginning at the start of observable clinical disease (beginning at about 26-27 days after immunization). The vehicle that was used for the protocol was 30% cyclodextrin-sulfobutylether in water. The cyclodextrin-sulfobutylether was obtained commercially (Captisol™ available at cyclexinc.com). The drug formulation was 20 mg drug/mL in the vehicle.

Series [3] deals with osteoblasts and osteocytes in murine vertebral bone. The series can be described thus: osteoblast and osteocyte apoptosis in ovariectomized mice (TUNEL). Type of series: in vivo, mouse. Particulars: ovariectomized Swiss Webster mice. The text has this:
The degree of apoptosis of osteoblasts and osteocytes in murine vertebral bone as a function of estrogen deficiency was examined. Swiss Webster mice (four months old) were ovariectomized. Twenty-eight days later, the animals were sacrificed, vertebrae were isolated, fixed and embedded, and then undecalcified in methacrylate.

The nature of series [4]: metabolic stability in liver microsomes: rat. Particulars: 30 min. (Liver microsomes are a subcellular fraction often used to study metabolism.)
Procedure: Metabolic stability. The metabolic stability of selected compounds was examined in vitro using microsomes obtained from liver tissue according to the following protocol.
The protocol was performed as follows. (1) Prepared 0.5 mM compound in acetonitrile/water 35:65. […] (2) Set up samples as follows. […] Tubes for each compound was follows: 1-0′ 2-0′ 3-0′ 4-0′* 5-0′* 6-5 μM 7-1 μM 8-30′ 9-30′ 10-30′ where * designated denatured microsome negative control reaction tubes. For additional compounds numbering was started at 11, 21, 31, etc. (3) Added 315 μL PBS (pH 7.3-7.5) to each tube. Added 10 μL of the appropriate test article solution to each tube. (4) The internal standard/acetonitrile solution. (5) The NADPH regenerating system (NRS) was 125 μL per tube. To PBS added 1.7 mg/ml NADP, 7.8 mg/ml glucose-6-phosphate, 6 units/mL glucose-6-phosphate dehydrogenase. Fresh NRS for each experiment was kept on ice until use. (6) Each reaction used 125 μL of NRS in each tube. (7) Removed liver microsome preparation from −80° C. freezer and thawed in a room temperature water bath. The microsomal preparation was at a concentration of 20 mg/ml. […] (13) The methyl-t-butyl ether was transferred from each tube to a fresh tube and the solvent was evaporated ether under nitrogen and the precipitate was then resuspended in 100 μL acetonitrile/water 35:65 and analyzed by LCMS.
Setting [5] is: 40 mg/kg/day oral gavage from onset of clinical disease, n = 3.

Marks after values point to notes of the source that are not given here.

Regarding `C#C[C@]1(O)CC[C@H]2[C@@H]3[C@@H](O)C=C4C[C@@H](O)CC[C@]4(C)[C@H]3CC[C@@]21C` [17α-ethynylandrost-5-ene-3β,7β,17β-triol], the “glucose intolerance (OGTT glycemic excursion) compared to vehicle” value with DIO mice is given as “notably reduced glucose intolerance”. Besides, in series [1], the “glucose infusion rate compared to the vehicle control” value is “increased the glucose infusion rate”. Moreover, in the series on 11β-HSD1, the “decrease of expression of 11β-HSD1 in osteoblasts” value was “about 50%”. Besides, in series [2] (setting [5]), the “CD4^+Foxp3^+ cells in whole splenocytes” value is listed as 1.34% ± 0.05 and the “Total Foxp3^+ cells in whole splenocytes” value is listed as 2.39% ± 0.16. For the same compound, the “Foxp3+ CD4^+ cells by cell sorter analysis” value in series [2] (40 mg/kg/day, control animals 1.0%) was 1.4%. For the same compound, in series [2] (at day 34, vehicle about 6.8-8 between days 34-49), the “maximum mean clinical score” value is reported as “about 5”. In series [2] (by day 49), the mean clinical score entry is recorded as “about 3”. Also, the “osteoblast and osteocyte apoptosis” value in series [3] is “reduce apoptosis”. In series [4], the “parent remaining, rat microsome instead of mouse preparation” value is 86%* (30 min).
